Common to all, as to experiment: growth of human tumour cells (NCI), 48 h
Experiment [1] has as its system SK-OV-3 ovarian.
Experiment [2] concerns RXF 393 renal.
In experiment [3] the test system is SNB-75 CNS.
Experiment [4] deals with NCI/ADR-RES ovarian.
Experiment [5] concerns K-562 leukemia.
For experiment [6], the system named is HL-60(TB) leukemia.
Experiment [7] relates to A498 renal.
The subject of experiment [8] is ACHN renal.

Structures are written as SMILES.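 Five compound concentrations were applied to cells in 96-well plates for 48 hours; endpoints were derived by simple linear interpolation of the resulting dose-response curve. GI50 is the concentration that inhibits growth by half. The concentration for full growth arrest is given as TGI.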

With `NC(N)=Nc1ccc(Oc2cccc(Nc3ccc(Cl)c(C(F)(F)F)c3)c2)cn1`, the GI50 in experiment [1] is 1.89 µM; in experiment [2], 1.78 µM; in experiment [3] it was 1.42 µM; in experiment [4] it was 3.74 µM; in experiment [5], 1.91 µM; in experiment [6], 1.89 µM. Moreover, the GI50 was 1.23 µM in experiment [7] and 1.74 µM in experiment [8]. For the same compound, the TGI in experiment [1] was 3.43 µM; in experiment [2], 3.58 µM; in experiment [3], 2.77 µM; in experiment [4], 30.5 µM; in experiment [5], greater than 100 µM; in experiment [6], 4.52 µM. Moreover, the TGI turned out to be 2.67 µM in experiment [7] and 3.21 µM in experiment [8].

For the origin of these results see PubChem BioAssay (NCI).
